Data taken from the supplement of paper PMC9938120.

What was measured:
Test in all cases: drug sensitivity score (DSS3, normalised partial AUC of % inhibition dose-response) (DSS (score)); higher = more sensitive (stronger inhibition of viability); extreme values may be limits of the assay
FMOC02_1 = patient-derived low-grade serous ovarian cancer cells; conditions: 72 h; library: FO5A; assay format: 2D, 384-well, CellTiter-Glo
Outline: (§1)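 Early-passage (under 10) patient-derived ovarian cancer cells were dispensed onto 384-well flat clear-bottom plates pre-plated with compounds at five concentrations spanning a 10,000-fold range, then incubated 72 h at 37 °C, 5% CO2. Viability was read with CellTiter-Glo, and the data were processed in Breeze. The drug sensitivity score is a partial area under the percent-inhibition dose-response curve divided by the log of the upper asymptote, with higher values meaning greater sensitivity.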

FMOC02_2 = patient-derived low-grade serous ovarian cancer cells; conditions: 72 h; library: FO5A; assay format: 2D, 384-well, CellTiter-Glo
Outline: as §1

FMOC02_3 = patient-derived low-grade serous ovarian cancer cells; conditions: 72 h; library: FO5A; assay format: 2D, 384-well, CellTiter-Glo
Outline: as §1

FMOC03 = patient-derived mucinous ovarian cancer cells; conditions: 72 h; library: FO5A; assay format: 2D, 384-well, CellTiter-Glo
Outline: as §1

FMOC04 = patient-derived high-grade serous ovarian cancer cells; conditions: 72 h; library: FO5A; assay format: 2D, 384-well, CellTiter-Glo
Outline: as §1

FMOC06 = patient-derived mucinous ovarian cancer cells; conditions: 72 h; library: FO5A; assay format: 2D, 384-well, CellTiter-Glo
Outline: as §1

FMOC09 = patient-derived high-grade serous ovarian cancer cells; conditions: 72 h; library: FO5A; assay format: 2D, 384-well, CellTiter-Glo
Outline: as §1

FMOC11 = patient-derived high-grade serous ovarian cancer cells; conditions: 72 h; library: FO5A; assay format: 2D, 384-well, CellTiter-Glo
Outline: as §1

FMOC14 = patient-derived high-grade serous ovarian cancer cells; conditions: 72 h; library: FO5A; assay format: 2D, 384-well, CellTiter-Glo
Outline: as §1

FMOC17 = patient-derived low-grade serous ovarian cancer cells; conditions: 72 h; library: FO5A; assay format: 2D, 384-well, CellTiter-Glo
Outline: as §1

FMOC22 = patient-derived mucinous ovarian cancer cells; conditions: 72 h; library: FO5A; assay format: 2D, 384-well, CellTiter-Glo
Outline: as §1

FMOC24 = patient-derived high-grade serous ovarian cancer cells; conditions: 72 h; library: FO5A; assay format: 2D, 384-well, CellTiter-Glo
Outline: as §1

FMOC25_2 = patient-derived low-grade serous ovarian cancer cells; conditions: 72 h; library: FO5A; assay format: 2D, 384-well, CellTiter-Glo
Outline: as §1

FMOC27 = patient-derived low-grade serous ovarian cancer cells; conditions: 72 h; library: FO5A; assay format: 2D, 384-well, CellTiter-Glo
Outline: as §1

FMOC28 = patient-derived low-grade serous ovarian cancer cells; conditions: 72 h; library: FO5A; assay format: 2D, 384-well, CellTiter-Glo
Outline: as §1

FMOC25_1 = patient-derived low-grade serous ovarian cancer cells; conditions: 72 h; library: FO4B; assay format: 2D, 384-well, CellTiter-Glo
Outline: as §1

Structure (SMILES) | drug sensitivity score (FMOC02_1) | drug sensitivity score (FMOC02_2) | drug sensitivity score (FMOC02_3) | drug sensitivity score (FMOC03) | drug sensitivity score (FMOC04) | drug sensitivity score (FMOC06) | drug sensitivity score (FMOC09) | drug sensitivity score (FMOC11) | drug sensitivity score (FMOC14) | drug sensitivity score (FMOC17) | drug sensitivity score (FMOC22) | drug sensitivity score (FMOC24) | drug sensitivity score (FMOC25_2) | drug sensitivity score (FMOC27) | drug sensitivity score (FMOC28) | drug sensitivity score (FMOC25_1)
CC1(C)C(C(=O)Nc2ccc(S(=O)(=O)c3ccc(NC(=O)C4C(C)(C)C4(C)C)cc3)cc2)C1(C)C [BRD7116] | 0 | 0.1 | 3.7 | 0.5 | 0 | 0.8 | 0 | 2.2 | 0 | 1.4 | 0 | 1.5 | 0 | 0 | 1 | 
CCCN(CCC)C(=O)C1=Cc2ccc(-c3ccc(C(=O)N4CCCC4)cc3)cc2N=C(N)C1 [Motolimod] | 0 | 0 | 1.6 | 0 | 0 | 0.3 | 0 | 0 | 0 | 0 | 0 | 0 | 0.1 | 0.4 | 2.5 | 
CC(C)NC(=O)COc1cccc(-c2nc(Nc3ccc4[nH]ncc4c3)c3ccccc3n2)c1 [KD025] | 5.4 | 1.6 | 6.2 | 0 | 3.55 | 1.1 | 0.2 | 1.6 | 2.7 | 4.5 | 0 | 10.4 | 4.4 | 0 | 2.4 | 
COc1cc2ncnc(Nc3cccc(Cl)c3F)c2cc1OC(=O)N1CCN(C)C[C@H]1C [AZD3759] | 6.4 | 5.4 | 5.9 | 4.8 | 0.25 | 0.2 | 2.8 | 3.3 | 0.5 | 7 | 0 | 0 | 4.2 | 2.8 | 5 | 
CN1C(=O)N[C@H](Cc2c[nH]c3c(Cl)cccc23)C1=O [Necrostatin 2] | 0 | 0 | 0 | 0 | 0 | 0 | 0 | 0 | 0 | 0.7 | 0 | 0 | 0.3 | 0 | 2.5 | 
CN(C)CCCOc1ccc(-c2ccc3ncc4c(c3c2)n(C2CCOCC2)c(=O)n4C)cn1 [AZD0156] | 5.3 | 3.4 | 3.1 | 0.5 | 0.8 | 0.1 | 0.1 | 0 | 0 | 2.2 | 0.9 | 0 | 2.5 | 0 | 4.6 | 
CON(C)C(=O)N1N=C(c2cc(F)ccc2F)S[C@@]1(CCCN)c1ccccc1 [Filanesib] |  | 6.8 | 12.7 | 4.4 |  | 0 | 7.5 |  | 0 |  | 6.3 | 0 | 12 |  |  | 6.1
O=C1CN2Cc3c(ccc(Cl)c3Cl)N=C2N1 [Anagrelide] |  | 0 | 0 | 0 |  | 0.7 | 18.7 |  | 0 |  | 0 | 0 | 0 |  |  | 0
CC(=O)O[C@@]12CO[C@@H]1C[C@H](O)[C@@]1(C)C(=O)[C@H](O)C3=C(C)[C@@H](OC(=O)[C@H](O)[C@@H](NC(=O)OC(C)(C)C)c4ccccc4)C[C@@](O)([C@@H](OC(=O)c4ccccc4)[C@H]21)C3(C)C [Docetaxel] |  | 10.8 | 15.5 | 11.7 |  | 9.1 | 13.9 |  | 0 |  | 12.4 | 0.6 | 15.5 |  |  | 12.1
O=C(O)C(=O)O.[NH-][C@@H]1CCCC[C@H]1[NH-].[Pt+2] [Oxaliplatin] |  | 7.5 | 9.9 | 8.8 |  | 7 | 14.9 |  | 6.8 |  | 9.6 | 11.3 | 5.7 |  |  | 8.9
Cc1cc(Nc2cc(N3CCN(C)CC3)nc(/C=C/c3ccccc3)n2)n[nH]1 [ENMD-2076] |  | 11.5 | 13.7 | 6.2 |  | 6.7 | 8.6 |  | 5.2 |  | 4.1 | 4.95 | 10.5 |  |  | 6.1
COc1ccc(S(=O)(=O)Nc2cccnc2Nc2ccc(O)cc2)cc1 [ABT-751] |  | 9.4 | 9.5 | 7.4 |  | 7 | 7.3 |  | 1.3 |  | 6.8 | 1.8 | 6.8 |  |  | 5
CCN(CC)CCCC(C)Nc1c2ccc(Cl)cc2nc2ccc(OC)cc12 (stereo not given) [Mepacrine] |  | 19.4 | 19.4 | 9.5 |  | 10 | 10.3 |  | 9.8 |  | 9.2 | 20.2 | 10.9 |  |  | 10.3
C/C=C1\NC(=O)[C@H]2CSSCC/C=C/[C@H](CC(=O)N[C@H](C(C)C)C(=O)N2)OC(=O)[C@H](C(C)C)NC1=O [Romidepsin] |  | 26.3 | 32.6 | 28.3 |  | 27.6 | 17.6 |  | 28.7 |  | 26.3 | 32.9 | 28.9 |  |  | 30.1
CC(C)C[C@H](NC(=O)[C@H](CCc1ccccc1)NC(=O)CN1CCOCC1)C(=O)N[C@@H](Cc1ccccc1)C(=O)N[C@@H](CC(C)C)C(=O)[C@@]1(C)CO1 [Carfilzomib] |  | 18.7 | 24.6 | 18 |  | 22.4 | 21.6 |  | 23.6 |  | 20.1 | 27.4 | 25.5 |  |  | 21.6
CC[C@]1(O)C[C@@H]2CN(CCc3c([nH]c4ccccc34)[C@@](C(=O)OC)(c3cc4c(cc3OC)N(C)[C@H]3[C@@](O)(C(=O)OC)[C@H](OC(C)=O)[C@]5(CC)C=CCN6CC[C@]43[C@@H]65)C2)C1 [Vinblastine] |  | 3.7 | 17.2 | 7.5 |  | 2.4 | 8.3 |  | 0 |  | 6.8 | 0.45 | 15.9 |  |  | 10.9
CCN(CC)CCCC(C)Nc1ccnc2cc(Cl)ccc12 (stereo not given) [Chloroquine] |  | 10.1 | 9.4 | 7.8 |  | 7.2 | 6 |  | 7.6 |  | 5.6 | 10.2 | 7 |  |  | 7.1
C=CC(=O)Nc1cc2c(Nc3ccc(F)c(Cl)c3)ncnc2cc1OCCCN1CCOCC1 [Canertinib] |  | 21.8 | 18.7 | 20.6 |  | 9 | 20.8 |  | 9.5 |  | 8 | 5.3 | 14.6 |  |  | 10
Nc1ncnc2c1nc(N)n2[C@@H]1O[C@H](CO)[C@@H](O)[C@H]1O [8-amino-adenosine] |  | 27.5 | 21.7 | 18.3 |  | 20.3 | 20.2 |  | 16 |  | 18.6 | 18.8 | 18.6 |  |  | 20.5
CN(C)c1cc2c(cc1Sc1nc3c(N)nccc3n1CCNCC(C)(C)C)OCO2 [CUDC-305] |  | 12.9 | 13.9 | 16.1 |  | 9.8 | 9.7 |  | 9.3 |  | 8.9 | 8.05 | 15.2 |  |  | 12.2
Cn1cnc2c(F)c(Nc3ccc(Br)cc3Cl)c(C(=O)NOCCO)cc21 [Selumetinib] |  | 12.9 | 13.7 | 11.4 |  | 14.6 | 10.6 |  | 1.3 |  | 7.2 | 0.4 | 8.1 |  |  | 7.3
CNC(=O)c1ccccc1Nc1cc(Nc2ccc(N3CCOCC3)cc2OC)ncc1C(F)(F)F [VS-4718] |  | 12 | 13.8 | 4.2 |  | 9.6 | 11.5 |  | 0.7 |  | 6 | 3.2 | 12.6 |  |  | 6.1
COC(=O)c1ccc2c(c1)NC(=O)/C2=C(\Nc1ccc(N(C)C(=O)CN2CCN(C)CC2)cc1)c1ccccc1 [Nintedanib] |  | 8.3 | 11.7 | 1.8 |  | 4.5 | 4.6 |  | 3.3 |  | 0.6 | 5.85 | 2.1 |  |  | 0
COc1cc2ncnc(Nc3ccc(F)c(Cl)c3)c2cc1NC(=O)/C=C/CN1CCCCC1 [Dacomitinib] |  | 20.4 | 18 | 18.2 |  | 5.5 | 16.1 |  | 4.6 |  | 1.7 | 0.3 | 18.6 |  |  | 7.8
Nc1cc(C(F)(F)F)c(-c2cc(N3CCOCC3)nc(N3CCOCC3)n2)cn1 [Buparlisib] |  | 11.7 | 13.3 | 8.6 |  | 8.7 | 6.7 |  | 4.2 |  | 6.3 | 2.25 | 10.8 |  |  | 11.5
CCN(CC)CCOc1ccc(C(=C(Cl)c2ccccc2)c2ccccc2)cc1 [Clomifene] |  | 8.2 | 9.1 | 7 |  | 5.6 | 5 |  | 5 |  | 4.8 | 9.9 | 7.2 |  |  | 4.7
CCn1c(=O)c(-c2ccc(Cl)cc2Cl)cc2cnc(Nc3ccc(N4CCNCC4)c(F)c3)nc21 [FRAX486] |  | 12.2 | 14.7 | 2.4 |  | 1.7 | 3.7 |  | 0.2 |  | 0.1 | 9.45 | 11.9 |  |  | 3.2
COc1cccc2c1C(=O)c1c(O)c3c(c(O)c1C2=O)C[C@@](O)(C(=O)CO)C[C@@H]3O[C@H]1C[C@H](N)[C@H](O)[C@H](C)O1 [Doxorubicin] |  | 2.9 | 7.2 | 2.6 |  | 4.3 | 6.5 |  | 3.6 |  | 4.5 | 5.65 | 8 |  |  | 7.7
